Patent US9051275B2, “4-[-2-[[5-methyl-1-(2-naphtalenyl)-1H-pyrazol-3-yl]oxy]ethyl]morpholine hydrochloride polymorphs and solvates” (Laboratories Del Dr. Esteve, S.A., priority 2010, dated 2015)

What was measured:
[1] = treatment and prevention of chronic and acute pain, particularly neuropathic pain; cited from earlier work
[2] = biological target: sigma-1 (σ-1) receptor (Homo sapiens, UniProt Q99720); conditions: cited from earlier work
[3] = Pressure: tablets of P027 phase I in a hydraulic press, PXRD analysis; format: physicochemical
Method: Tablets of P027 phase I were prepared in a hydraulic press at three different pressures (5, 7.5 and 10 tons) for three different times (5, 30 and 90 minutes) [see Table 24].
The solid samples obtained were analyzed by PXRD. […] FIG. 19 illustrates the PXRD pattern of a phase I form obtained by applying a pressure of […] to P027 for 90 minutes.

[4] = 1H NMR check of the stability of the salt in phase I samples; format: physicochemical; conditions: several samples of phase I from different crystallizations
Method: In addition, several samples of phase I were analyzed by ^1H NMR in order to check the stability of the salt.

[5] = Grinding of P027 phase I with catalytic solvent in a ball mill, PXRD analysis; format: physicochemical
Method: Approximately 40 mg of P027 phase I were transferred to a ball mill container together with catalytic quantities of the relevant solvent (three drops). The P027 phase I and the solvent were grinded at a maximum frequency of 30 s^−1 for 30 minutes (see Table 23).
The solid samples obtained were analyzed by PXRD. […] FIG. 18 illustrates the PXRD pattern of a phase I form obtained from grinding P027 together with dichloromethane.

[6] = Solubility of P027 in different solvents at room temperature (visual, successive solvent additions); format: physicochemical; conditions: thermodynamic from solid
Method: In order to plan the crystallization screening, […] table 6 using the following methodology (table 7): […] solvent and successive additions (initially 0.2 mL and finally 0.5 mL) of solvent until the solid was completely dissolved or up to a maximum of 8 mL were performed. After each solvent addition the suspension was vigorously stirred for 10-15 minutes and visually inspected to determine if the solid was completely dissolved.

[7] = Descriptive solubility of the P027 compound; format: physicochemical
[8] = Dissolution and absorption profile in vivo compared with the related base; conditions: compared with its related base
[9] = drying for 4 hours at 60° C., 80° C. and 100° C.
[10] = biological target: sigma 1 (σ-1) site (Homo sapiens, UniProt Q99720); conditions: cited from earlier work
Sequence of sigma 1 (σ-1) site (Q99720 whole entry): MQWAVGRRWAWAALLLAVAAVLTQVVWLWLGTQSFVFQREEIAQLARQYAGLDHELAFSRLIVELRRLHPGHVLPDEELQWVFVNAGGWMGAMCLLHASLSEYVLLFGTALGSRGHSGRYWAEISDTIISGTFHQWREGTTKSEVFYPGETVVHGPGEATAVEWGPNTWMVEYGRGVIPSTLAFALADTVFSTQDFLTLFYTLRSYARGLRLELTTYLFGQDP

[11] = biological target: sigma 2 (σ-2) site (Homo sapiens, UniProt Q5BJF2); conditions: cited from earlier work
Sequence of sigma 2 (σ-2) site (Q5BJF2 whole entry): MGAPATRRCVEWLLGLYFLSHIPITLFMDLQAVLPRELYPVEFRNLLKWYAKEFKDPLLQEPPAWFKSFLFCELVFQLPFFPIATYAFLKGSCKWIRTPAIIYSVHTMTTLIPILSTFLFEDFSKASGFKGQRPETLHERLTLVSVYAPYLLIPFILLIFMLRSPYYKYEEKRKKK

Sequence of sigma-1 (σ-1) receptor (Q99720 whole entry): as the sequence (Q99720 whole entry) above

Cc1cc(OCCN2CCOCC2)nn1-c1ccc2ccccc2c1 [4-[2-[[5-methyl-1-(2-naphthalenyl)-1H-pyrazol-3-yl]oxy]ethyl]morpholine]
analgesic activity [1]: strong analgesic activity
sigma-1 (σ-1) receptor antagonism, selectivity [2]: highly selective sigma-1 (σ-1) receptor antagonist

Cc1cc(OCCN2CCOCC2)nn1-c1ccc2ccccc2c1.Cl [P027 phase I, 4-[2-[[5-methyl-1-(2-naphthalenyl)-1H-pyrazol-3-yl]oxy]ethyl]morpholine hydrochloride phase I crystalline form]
phase stability under pressure (PXRD) ([3]; 5, 7.5 and 10 tons for 5, 30 and 90 minutes): stable under pressure
phase stability under pressure (PXRD) ([3]; pressure of 30 tons for 90 minutes (FIG. 19)): consistent with the standard phase I PXRD pattern demonstrating the phase stability
stability of the salt (1H NMR) [4]: no signs of the lost of HCl or decomposition
phase stability after grinding (PXRD) ([5]; ball mill, three drops of solvent (Table 23), 30 s^-1 for 30 minutes): stable after grinding
phase stability after grinding (PXRD) ([5]; grinding together with dichloromethane (FIG. 18)): consistent with the standard phase I PXRD pattern demonstrating the phase stability

Cc1cc(OCCN2CCOCC2)nn1-c1ccc2ccccc2c1.Cl [P027, 4-[2-[[5-methyl-1-(2-naphthalenyl)-1H-pyrazol-3-yl]oxy]ethyl]morpholine hydrochloride]
solubility ([6]; organic solvent or mixture, 1,1,1-Trichloroethane, room temperature): < 1200 µg/mL
solubility ([6]; organic solvent or mixture, 1,2-Dichloroethane, room temperature): 15000 to 25000 µg/mL
solubility ([6]; organic solvent or mixture, 2-Butanol, solid was dissolved at 60° C., left at room temperature, no solid observed): 3000 to 4000 µg/mL
solubility ([6]; organic solvent or mixture, 3-Pentanone, solid was dissolved at 80° C., left at room temperature, no solid observed): 1000 to 2000 µg/mL
solubility ([6]; organic solvent or mixture, Acetone, room temperature): 4000 to 5000 µg/mL
solubility ([6]; organic solvent or mixture, Acetonitrile, solid was dissolved at 60° C., left at room temperature, no solid observed): 10000 to 20000 µg/mL
solubility ([6]; organic solvent or mixture, Butyl amine, room temperature): > 50000 µg/mL
solubility ([6]; organic solvent or mixture, Chlorobenzene, room temperature): < 1200 µg/mL
solubility ([6]; organic solvent or mixture, Chloroform, room temperature): > 50000 µg/mL
solubility ([6]; organic solvent or mixture, Cyclohexane, room temperature): < 1200 µg/mL
solubility ([6]; organic solvent or mixture, Dichloromethane, room temperature): > 50000 µg/mL
solubility ([6]; organic solvent or mixture, Diethoxymethane, room temperature): < 1200 µg/mL
solubility ([6]; organic solvent or mixture, Diisopropyl ether, room temperature): < 1200 µg/mL
solubility ([6]; organic solvent or mixture, Dimethoxymethane, room temperature): < 1200 µg/mL
solubility ([6]; organic solvent or mixture, Dimethylcarbonate, solid was dissolved at 80° C., left at room temperature, no solid observed): 1000 to 2000 µg/mL
solubility ([6]; organic solvent or mixture, Dimethylformamide, room temperature): > 50000 µg/mL
solubility ([6]; organic solvent or mixture, Dimethylsulfoxide, room temperature): > 50000 µg/mL
solubility ([6]; organic solvent or mixture, Dioxane, solid was dissolved at 80° C., left at room temperature, no solid observed): 1000 to 2000 µg/mL
solubility ([6]; organic solvent or mixture, Ethanol, room temperature): 15000 to 25000 µg/mL
solubility ([6]; organic solvent or mixture, Ethyl acetate, room temperature): < 1200 µg/mL
solubility ([6]; organic solvent or mixture, Isobutyl acetate, room temperature): < 1200 µg/mL
solubility ([6]; organic solvent or mixture, Isopropanol, solid was dissolved at 60° C., left at room temperature, no solid observed): 4000 to 5000 µg/mL
solubility ([6]; organic solvent or mixture, Isopropyl acetate, room temperature): < 1200 µg/mL
solubility ([6]; organic solvent or mixture, Methanol, room temperature): > 50000 µg/mL
solubility ([6]; organic solvent or mixture, Methyl acetate, room temperature): < 1200 µg/mL
solubility ([6]; organic solvent or mixture, Methyl ethyl ketone, solid was dissolved at 60° C., left at room temperature, no solid observed): 2000 to 4000 µg/mL
solubility ([6]; organic solvent or mixture, Methyl isobutyl ketone, room temperature): < 1200 µg/mL
solubility ([6]; organic solvent or mixture, Methyl tert-butyl ether, room temperature): < 1200 µg/mL
solubility ([6]; organic solvent or mixture, N,N-Dimethylacetamide, room temperature): 25000 to 50000 µg/mL
solubility ([6]; organic solvent or mixture, Nitromethane, room temperature): 25000 to 50000 µg/mL
solubility ([6]; organic solvent or mixture, Propyl acetate, room temperature): < 1200 µg/mL
solubility ([6]; organic solvent or mixture, Pyridine, room temperature): 25000 to 50000 µg/mL
solubility ([6]; organic solvent or mixture, Tetrahydrofuran, room temperature): < 1200 µg/mL
solubility ([6]; organic solvent or mixture, Toluene, room temperature): < 1200 µg/mL
solubility ([6]; organic solvent or mixture, Triethylamine, room temperature): < 1200 µg/mL
solubility ([6]; organic solvent or mixture, Xylene, room temperature): < 1200 µg/mL
solubility ([6]; organic solvent or mixture, n-Butanol, solid was dissolved at 60° C., left at room temperature, no solid observed): 5000 to 10000 µg/mL
solubility ([6]; organic solvent or mixture, n-Heptane, room temperature): < 1200 µg/mL
solubility ([6]; organic solvent or mixture, n-Hexane, room temperature): < 1200 µg/mL
solubility ([6]; Water, room temperature): > 50000 µg/mL
solubility in 1N hydrochloric acid ([7]; 1N hydrochloric acid): freely soluble
solubility in 1N sodium hydroxide ([7]; 1N sodium hydroxide): practically insoluble
solubility in acetone ([7]; acetone): slightly soluble
solubility in dimethyl sulphoxide ([7]; dimethyl sulphoxide): freely soluble
solubility in ethanol ([7]; ethanol): sparingly soluble
solubility in ethyl acetate ([7]; ethyl acetate): practically insoluble
solubility in methanol ([7]; methanol): freely soluble
solubility in water ([7]; water): very soluble
dissolution and absorption profile in vivo [8]: better dissolution and absorption profile in vivo than its related base

C1COCCO1.Cc1cc(OCCN2CCOCC2)nn1-c1ccc2ccccc2c1.Cl [dioxane solvate, 4-[2-[[5-methyl-1-(2-naphthalenyl)-1H-pyrazol-3-yl]oxy]ethyl]morpholine hydrochloride solvate with dioxane]
solid form after drying (PXRD) [9]: transformation to Phase I was observed

SKF 10047
affinity for the sigma 1 (σ-1) site [10]: nanomolar
affinity for the sigma 2 (σ-2) site [11]: micromolar
